Our source for the T/C values is PubChem BioAssay AID238 (DTP/NCI, 2004).

Each structure is given as a SMILES string. Where “and” joins values, the source holds several entries; their conditions need not be identical. Equal entries are not always repeated. Inconclusive results and toxic doses are left out.

The subject of this test is CAF1 mice, leiomyosarcoma No.2 ip, survival T/C%. As to the kind of experiment: NCI In Vivo Anticancer Drug Screen. Data for tumor model Leiomyosarcoma (No. 2) (intraperitoneal) in CAF1 mice. The settings on record: endpoint: mean survival time, schedule: Q01DX010 (ip), vehicle: saline, higher = longer survival. On the procedure: The antitumor activity of compounds was measured in mice bearing transplantable tumors. Survival or tumor size were measured and the results are expressed as the measurement made in the treated group (T) divided by the measurement made in the vehicle treated control group (C). The tumor model used in this assay is Leiomyosarcoma (No. 2) (intraperitoneal) in CAF1 mice

In the case of `CS(=O)(=O)OCCCl`, the T/C reads like this: (dose: 18.8 mg/kg/injection) 100 % of control; (dose: 37.5 mg/kg/injection) 111 % of control; (dose: 75.0 mg/kg/injection) 116 % of control; (dose: 150.0 mg/kg/injection) 220 % of control and 269 % of control.

As to `CCCCOP(=S)(N1CC1)N1CC1`, the T/C (dose: 4.0 mg/kg/injection) was 165 % of control, the T/C (dose: 8.0 mg/kg/injection) was 223 % of control and the T/C (dose: 16.0 mg/kg/injection) is 250 % of control.

Turning to `OCC1OC(n2cnc3c(=S)nc[nH]c32)C(O)C1O` (stereo not drawn), the T/C was 161 % of control and 248 % of control (dose: 20.0 mg/kg/injection); 153 % of control (dose: 80.0 mg/kg/injection); 87 % of control (dose: 160.0 mg/kg/injection).

For the compound `O=c1cn[nH]c(=O)[nH]1`, the T/C is 114 % of control (dose: 62.5 mg/kg/injection); 90 % of control and 106 % of control (dose: 125.0 mg/kg/injection); 92 % of control and 107 % of control (dose: 250.0 mg/kg/injection); 96 % of control (dose: 500.0 mg/kg/injection).

`C[C@@H]1C[C@@H]([C@H](O)CC2CC(=O)NC(=O)C2)C(=O)[C@@H](C)C1`: the T/C was 100 % of control and 103 % of control (dose: 5.0 mg/kg/injection); 110 % of control and 111 % of control (dose: 10.0 mg/kg/injection); 116 % of control (dose: 20.0 mg/kg/injection); 163 % of control and 169 % of control (dose: 40.0 mg/kg/injection).
